No end group written: not given here.
What was measured:
RAW-264.7 macrophages = assay: Apoptosis and proliferation of RAW264.7 macrophages (nucleosome formation, flow cytometry); type: cell-based, mouse
Procedure: (§1) Cells were plated in 96-well plates at an initial concentration of 10,000 cells per well. Apoptosis was measured by direct determination of nucleosomal DNA fragmentation with the “cell death detection” ELISA plus kit according to the manufacturer's protocol.
(§2) Cells were treated with UCN and/or LPS at the indicated concentrations for different time points, collected in PBS and incubated with 7-amino-actinomycin (7AAD) for 10 minutes. Cells were washed and analyzed by Flow Cytometry (Coulter).

[1] = test system: primary bone marrow macrophages; assay: Apoptosis of primary bone marrow macrophages; type: cell-based
Procedure: as §1, §2

RAW264.7 cells = assay: Stress kinase, Bax and Fas Ligand in RAW264.7 cells (Western blot); type: cell-based, mouse
Procedure: Following stimulation cells were harvested and lyzed in 62.5 mM Tris HCl pH=6.8, 10% glycerol, 2% SDS, and freshly added inhibitors phenylmethylsulfonyl fluoride (10 μg/ml), 0.5 mM DTT and 50 mM Na2F.

CRH-R2 receptor = target: T1, CRH-R2 receptor (Mus musculus, UniProt Q60748); conditions: cited from earlier work
T1 construct: monocyte/macrophage cells which express both the CRH-R1 and the CRH-R2 receptors on the surface; endogenous in cells; host or cells: macrophages
T1 sequence (Q60748 whole entry): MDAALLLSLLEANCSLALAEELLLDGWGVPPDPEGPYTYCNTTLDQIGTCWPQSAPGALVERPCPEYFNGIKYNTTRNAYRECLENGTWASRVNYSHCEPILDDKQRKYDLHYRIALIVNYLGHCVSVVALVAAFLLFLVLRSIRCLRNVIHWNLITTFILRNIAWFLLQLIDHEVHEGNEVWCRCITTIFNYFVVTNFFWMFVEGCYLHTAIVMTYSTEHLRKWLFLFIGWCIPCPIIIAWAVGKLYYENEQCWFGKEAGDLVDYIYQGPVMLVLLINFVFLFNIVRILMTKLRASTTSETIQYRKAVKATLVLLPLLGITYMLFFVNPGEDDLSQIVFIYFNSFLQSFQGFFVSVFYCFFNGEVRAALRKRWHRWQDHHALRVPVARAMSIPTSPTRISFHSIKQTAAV

urocortin (DNPSLSIDLTFHLLRTLLELARTQSQRERAEQNRIIFDSV; ends and bridges not checked; UniProt P55089 83-122, looked up) [UCN]
cell proliferation (RAW-264.7 macrophages; cells cultured in the presence of serum): promoted cell proliferation
apoptosis (RAW-264.7 macrophages; serum-deprived, LPS-induced cells, 10^−9M UCN, 10 μg/ml LPS): promoted apoptosis
LPS-induced apoptosis [1]: enhanced
LPS-induced p38MAPK and JNK activation (RAW264.7 cells; UCN plus LPS): enhances
Bax (RAW264.7 cells; UCN treatment): upregulation
Fas Ligand expression (RAW264.7 cells; UCN treatment): enhancement
activation of the stress-induced kinases JNK and p38MAPK (RAW264.7 cells; UCN treatment): rapid activation
apoptosis on macrophages (CRH-R2 receptor): induce apoptosis

Reference: patent US20090247558A1, “USE OF THE CRH (CORTICOTROPIN RELEASING HORMONE) - UCN (UROCORTIN) SYSTEM IN THE TREATMENT OF INFLAMMATORY DISEASES” (priority 2002, published 2009)
